Where two headings read alike, the source gives them in different places.
Tests used:
BCL-XL [1] = target: T1, BCL-XL (Homo sapiens (Human), UniProt Q07817); assay: 1D 1H-NMR binding assay; settings: 4-point-rating scale; compounds 200 μM, BCL-XL 25 μM; also: key: +++: Very Active; ++: Active; +: Mild; −: Weak
Method: By observing the aliphatic region of the spectra, binding could be readily detected due to chemical shift changes in active site methyl groups of Ile, Leu, Thr, Val or Ala (region between −0.8 and 0.3 ppm). All experiments were performed with a 600 MHz spectrometer Bruker Avance 600 equipped with four rf channels and z-axis pulse-field gradients.

Plasma stability = assay type: in vitro ADME, rat; settings: rat plasma, 1 h, 37.5° C.
Method: A 20 μL aliquot of a 10 mM solution in DMSO of the test compound was added to […] of heparinized rat plasma (Lampire, P1-150N) to obtain a 100 μM final solution. The mixture was incubated for 1 h at 37.5° C. Aliquots of 100 μL were taken (0, 30 min, 1 h) and diluted with 200 μL of MeOH containing internal standard.

[2] = Liver microsomal stability; settings: for Microsomal Stability (T = 1 hr): rat liver microsomes, 4 μM, 60 min; for microsomal stability compared to apogossypol: rat microsomal preparations
Method: Pooled rat liver microsomes (BD Biosciences, #452701) were preincubated with test compounds at 37.5° C. for 5 min in the absence of NADPH. The reaction was initiated by addition of NADPH and then incubated under the same conditions. […] One aliquot (100 μL) of the incubation mixture was withdrawn at 0, 15, 30, and 60 min and combined immediately with 200 μL of ACN/MeOH containing an internal standard. After mixing, the sample was centrifuged at approximately 13,000 rpm for 12 min. The supernatant was transferred into an autosampler vial and the amount of test compound was quantified using the Shimadzu LCMS 2010EV mass spectrometer. The change of the AUC (area under the curve) of the parent compound as function of time was used as a measure of microsomal stability.

[3] = PAMPA (parallel artificial membrane permeation assay); settings: PAMPA, pH 7.2, 8 h
Method: PAMPA is parallel artificial membrane permeation assay. A 96-well microtiter plate (Millipore, # MSSACCEPTOR) was completely filled with aqueous buffer solution (pH 7.2) and covered with a microtiter filterplate (Millipore, # MAPBMN310). The hydrophobic filter material was impregnated with a 10% solution of hexadecane in hexane and the organic solvent was allowed to completely evaporate. Permeation studies were started by the transfer of 200 μL of a 100 μM test compound solution on top of the filterplate. In general phosphate buffer at pH 7.2 buffer was used. The maximum DMSO content of the stock solutions was <5%. In parallel, an equilibrium solution lacking a membrane was prepared using the exact concentrations and specifications but lacking the membrane. The concentrations of the acceptor and equilibrium solutions were determined using the Shimadzu LCMS-2010EV and AUC methods. The permeation of a compound through the membrane layer is described by the percentage permeation (% flux). The flux values were calculated considering the concentration of the acceptor compartment after 8 h and that of a reference well with the same concentration containing no membrane barrier.

H460 cell line = assay: Cell viability, ATP-LITE assay; assay type: cell-based, human
Method: (§1) The activity of the compounds against human cancer cell lines (PC3ML, H460, H1299, RS11846) were assessed by using the ATP-LITE assay (PerkinElmer). All cells were seeded in either F12 or RPMI1640 medium with 5 mM L-glutamine supplemented with 5% fetal bovine serum (Mediatech Inc.), penicillin and streptomycin (Omega). For maintenance, cells were cultured in 5% FBS. Cells plated into 96 well plates at varying initial densities depending on doubling time. H460 and H1299 plated at 2000 cells/well, A549 and PC3 at 3000 cells/well, and RS118456S at 10,000 cells/well. Compounds were diluted to final concentrations with 0.1% DMSO. Prior to dispensing compounds onto cells, fresh 5% media was placed into wells. Administration of compounds occurred 24 hours after seeding into the fresh media. Cell viability was evaluated using ATP-LITE reagent (PerkinElmer) after 72 hours of treatment. Data were normalized to the DMSO control-treated cells using Prism version 5.01 (Graphpad Software).

GST-BCL-2 = GST-BCL-2 (Homo sapiens (Human), UniProt P10415); assay: Fluorescence polarization assay (FITC-Bim BH3 peptide); assay type: binding; settings: read-out: EC50 FPA BCL-2
Chain of GST-BCL-2 (P10415 whole entry): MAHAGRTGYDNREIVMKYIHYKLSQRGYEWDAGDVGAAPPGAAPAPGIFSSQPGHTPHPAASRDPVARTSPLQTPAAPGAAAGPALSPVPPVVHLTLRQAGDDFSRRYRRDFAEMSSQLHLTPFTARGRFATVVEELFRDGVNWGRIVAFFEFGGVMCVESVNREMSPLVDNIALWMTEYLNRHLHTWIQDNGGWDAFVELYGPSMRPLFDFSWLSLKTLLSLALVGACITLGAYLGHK
Method: (§2) After 30 min incubation at room temperature, the polarization values in millipolarization units were measured at excitation/emission wavelengths of 480/535 nm with a multilabel plate reader (PerkinElmer). IC50 was determined by fitting the experimental data to a sigmoidal dose-response nonlinear regression model (SigmaPlot 10.0.1, Systat Software, Inc., San Jose, Calif., USA). Data reported are mean of three independent experiments ±standard error (SE). Performance of BCL-2 and Mcl-1 FPA are similar. […] Fluorescence polarization was measured after 10 min.

RS11846 cell line = assay: Apoptosis, Annexin V and propidium iodide assay; assay type: cell-based, human
Method: The apoptotic activity of the compounds against RS11846 cells was assessed by staining with Annexin V- and propidium iodide (PI). Lymphoma cell line, RS11846, was cultured in RPMI 1640 medium (Mediatech Inc., Herndon, Va. 20171) containing 10% fetal bovine serum (Mediatech Inc., Herndon, Va. 20171) and Penicillin/Streptomycin (Mediatech Inc., Herndon, Va. 20171). […] The percentage of viable cells was determined by FITC-Annexin V- and propidium iodide (PI)-labeling, using an Apoptosis Detection kit (BioVision Inc.), and analyzing stained cells by flow cytometry (FACSort; Bectin-Dickinson, Inc.; Mountain View, Calif.). Cells that were annexin-V-negative and PI-negative were considered viable.

BCL-XL [4] = target: T1, BCL-XL; assay: Isothermal titration calorimetry (ITC); assay type: binding; settings: 25° C., pH 7.4
Method: Titrations were performed using a VP-ITC or ITC200 calorimeter from Microcal (Northampton, Mass.). BCL-XL was used at concentrations between 25 and 100 μM in 20 mM sodium phosphate buffer (pH 7.4) and 5-10% DMSO. Titrants were used at concentrations 10-15× of the protein in the same buffer. Titrations were carried out at 25° C. Data were analyzed using Microcal Origin software provided by the ITC manufacturer (Microcal, Northampton, Mass.).

GST-Mcl-1 = GST-Mcl-1 (Homo sapiens (Human), UniProt Q07820); assay: Fluorescence polarization assay (FITC-Bim BH3 peptide); assay type: binding; settings: read-out: EC50 FPA Mcl-1
Chain of GST-Mcl-1 (Q07820 whole entry): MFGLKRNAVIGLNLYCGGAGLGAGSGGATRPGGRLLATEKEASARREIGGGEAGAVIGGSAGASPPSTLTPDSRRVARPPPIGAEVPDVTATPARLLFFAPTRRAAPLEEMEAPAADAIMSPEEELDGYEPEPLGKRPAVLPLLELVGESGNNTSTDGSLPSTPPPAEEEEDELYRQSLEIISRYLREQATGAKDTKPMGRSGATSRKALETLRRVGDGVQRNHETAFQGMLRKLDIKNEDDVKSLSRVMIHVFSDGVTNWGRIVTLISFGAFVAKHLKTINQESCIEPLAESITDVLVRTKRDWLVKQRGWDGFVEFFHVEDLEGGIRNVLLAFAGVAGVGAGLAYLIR
Method: as §2, with “(SE).” for “(SE). Performance of BCL-2 and Mcl-1 FPA are similar.”

GST-BCL-XL ΔTM protein = GST-BCL-XL ΔTM protein (Homo sapiens (Human), UniProt Q07817); assay: Competitive fluorescence polarization assay (FITC-Bak BH3 peptide); assay type: binding
Chain of GST-BCL-XL ΔTM protein (Q07817 1-209): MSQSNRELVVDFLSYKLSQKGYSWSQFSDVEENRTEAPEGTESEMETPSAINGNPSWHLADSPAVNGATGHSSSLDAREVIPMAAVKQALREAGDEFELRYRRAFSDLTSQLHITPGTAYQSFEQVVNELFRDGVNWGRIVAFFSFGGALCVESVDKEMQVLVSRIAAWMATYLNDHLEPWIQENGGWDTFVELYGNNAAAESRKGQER
Method: For competitive binding assays, 100 nM GST-BCL-XL ΔTM protein was preincubated with the tested compound at varying concentrations in 47.5 μL PBS (pH=7.4) in 96-well black plates at room temperature for 10 min, then 2.5 μL of 100 nM FITC-labeled Bak BH3 peptide was added to produce a final volume of 50 μL. The wild-type and mutant Bak BH3 peptides were included in each assay plate as positive and negative controls, respectively.
IC50 was determined by fitting the experimental data to a sigmoidal dose-response nonlinear regression model (SigmaPlot 10.0.1, Systat Software, Inc., San Jose, Calif., USA). Data reported are mean of three independent experiments ±standard error (SE). […] Fluorescence polarization was measured after 10 min.

PC3ML cells = assay: Cell viability, ATP-LITE assay; assay type: cell-based, human; settings: 72 hours, ATP-LITE
Method: as §1

[5] = 1-2 days; read-out: RS11846 EC50 (Annexin V- and propidium iodide assay)

T1 sequence (Q07817 whole entry): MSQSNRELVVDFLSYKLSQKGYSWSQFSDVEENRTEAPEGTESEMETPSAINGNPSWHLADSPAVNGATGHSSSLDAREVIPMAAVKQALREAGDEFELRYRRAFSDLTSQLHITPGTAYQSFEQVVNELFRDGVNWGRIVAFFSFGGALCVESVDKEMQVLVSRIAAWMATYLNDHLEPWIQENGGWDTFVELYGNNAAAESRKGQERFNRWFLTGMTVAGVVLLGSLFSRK

Structure (SMILES)	1D 1H-NMR Binding Assay (BCL-XL) (BCL-XL [1])	Plasma Stability (T = 1 hr) (Plasma stability) [%]	Cell Permeability [3]	further results
Cc1cc2c(C(=O)C(C)C)c(O)c(O)cc2c(O)c1-c1c(C)cc2c(C(=O)C(C)C)c(O)c(O)cc2c1O [Compound III, 1,1′-(1,1′6,6′,7,7′-hexahydroxy-3,3′-dimethyl-2,2′-binaphthyl-5,5′-diyl)bis(2-methylpropan-1-one)]	++			
Cc1cc2c(C(=O)c3ccc(-c4ccccc4)cc3)c(O)c(O)cc2c(O)c1-c1c(C)cc2c(C(=O)c3ccc(-c4ccccc4)cc3)c(O)c(O)cc2c1O [Compound IX, (1,1′,6,6′,7,7′-hexahydroxy-3,3′-dimethyl-2,2′-binaphthyl-5,51-diyl)bis(biphenyl-4-ylmethanone)]	−			
Cc1ccc(CC(=O)c2c(O)c(O)cc3c(O)c(-c4c(C)cc5c(C(=O)Cc6ccc(C)cc6)c(O)c(O)cc5c4O)c(C)cc23)cc1 [Compound XII, 1,1′-(1,1′,6,6′,7,7′-hexahydroxy-3,3′-dimethyl-2,2′-binaphthyl-5,5′-diyl)bis(2-p-tolylethanone)]		72	Low and Medium	times more potent than apogossypol, H460 EC50 (H460 cell line): 4-5 times; EC50 (PC3ML cells): 2.5 µM; EC50 (GST-BCL-2): 0.78 µM; EC50 (RS11846 cell line; read-out: RS11846 EC50 (Annexin V- and propidium iodide assay); 1-2 days): 3 µM; EC50 (GST-Mcl-1): 1.1 µM
Cc1cc2c(C(=O)Cc3cccc(Br)c3)c(O)c(O)cc2c(O)c1-c1c(C)cc2c(C(=O)Cc3cccc(Br)c3)c(O)c(O)cc2c1O [Compound XIII, 1,1′-(1,1′,6,6′,7,7′-hexahydroxy-3,3′-dimethyl-2,2′-binaphthyl-5,5′-diyl)bis(2-(3-bromophenyl)ethanone)]	++			
Cc1cc2c(C(=O)CCc3ccc(F)cc3)c(O)c(O)cc2c(O)c1-c1c(C)cc2c(C(=O)CCc3ccc(F)cc3)c(O)c(O)cc2c1O [Compound XVI, 1,1′-(1,1′,6,6′,7,7′-hexahydroxy-3,3′-dimethyl-2,2′-binaphthyl-5,5′-diyl)bis(3-(4-fluorophenyl)propan-1-one)]	+			
Cc1cc2c(C(=O)c3nc4ccccc4s3)c(O)c(O)cc2c(O)c1-c1c(C)cc2c(C(=O)c3nc4ccccc4s3)c(O)c(O)cc2c1O [Compound XVII, (1,1′,6,6′,7,7′-hexahydroxy-3,3′-dimethyl-2,2′-binaphthyl-5,5′-diyl)bis(benzo[d]thiazol-2-ylmethanone)]	++	90	Medium	Microsomal Stability (T = 1 hr) [2]: 68%; IC50 (GST-BCL-XL ΔTM protein; read-out: FPA IC50 (BCL-XL)): 0.39 µM
Cc1cc2c(C(=O)C(C)(C)C)c(O)c(O)cc2c(O)c1-c1c(C)cc2c(C(=O)C(C)(C)C)c(O)c(O)cc2c1O [Compound XVIII, 1,1′-(1,1′,6,6′,7,7′-hexahydroxy-3,3′-dimethyl-2,2′-binaphthyl-5,5′-diyl)bis(2,2-dimethylpropan-1-one)]	++	90	Medium	Microsomal Stability (T = 1 hr) [2]: 30%; microsomal stability compared to apogossypol [2]: degraded faster than apogossypol
CCCCC(=O)c1c(O)c(O)cc2c(O)c(-c3c(C)cc4c(C(=O)CCCC)c(O)c(O)cc4c3O)c(C)cc12 [Compound XX, 1,1′-(1,1′,6,6′,7,7′-hexahydroxy-3,3′-dimethyl-2,2′-binaphthyl-5,5′-diyl)dipentan-1-one]	+			

Continued, in another order:

1D 1H-NMR Binding Assay (BCL-XL) (BCL-XL [1])	Structure (SMILES)	Plasma Stability (T = 1 hr) (Plasma stability) [%]	Cell Permeability [3]	further results
+	Cc1cc2cc(O)c(O)cc2c(O)c1-c1c(C)cc2cc(O)c(O)cc2c1O [Compound II, 3,3′-dimethyl-2,2′-binaphthyl-1,1′,6,6′,7,7′-hexaol]			
+	CCCCC(CC)CC(=O)c1c(O)c(O)cc2c(O)c(-c3c(C)cc4c(C(=O)CC(CC)CCCC)c(O)c(O)cc4c3O)c(C)cc12 (centres unmarked) [Compound V, 1,1′-(1,1′,6,6′,7,7′-hexahydroxy-3,3′-dimethyl-2,2′-binaphthyl-5,5′-diyl)bis(3-ethylheptan-1-one)]			
+	Cc1cc2c(C(=O)C3CCCC3)c(O)c(O)cc2c(O)c1-c1c(C)cc2c(C(=O)C3CCCC3)c(O)c(O)cc2c1O [Compound VI, (1,1′,6,6′,7,7′-hexahydroxy-3,3′-dimethyl-2,2′-binaphthyl-5,5′-diyl)bis(cyclopentylmethanone)]	79	Low	Microsomal Stability (T = 1 hr) [2]: 27%; microsomal stability compared to apogossypol [2]: degraded faster than apogossypol
+	Cc1cc2c(C(=O)c3ccccc3)c(O)c(O)cc2c(O)c1-c1c(C)cc2c(C(=O)c3ccccc3)c(O)c(O)cc2c1O [Compound VII, (1,1′,6,6′,7,7′-hexahydroxy-3,3′-dimethyl-2,2′-binaphthyl-5,5′-diyl)bis(phenylmethanone)]			EC50 (H460 cell line; 72 hours, ATP-LITE): 0.31 µM
+	Cc1cc2c(C(=O)c3cccc4ccccc34)c(O)c(O)cc2c(O)c1-c1c(C)cc2c(C(=O)c3cccc4ccccc34)c(O)c(O)cc2c1O [Compound VIII, (1,1′,6,6′,7,7′-hexahydroxy-3,3′-dimethyl-2,2′-binaphthyl-5,5′-diyl)bis(naphthalen-1-ylmethanone)]	62	Low	Microsomal Stability (T = 1 hr) [2]: 52%; EC50 (GST-BCL-2): 1.9 µM; EC50 (RS11846 cell line; [5]): 4.2 µM; Kd (BCL-XL [4]): 2.75 µM; EC50 (GST-Mcl-1): 2.2 µM; EC50 (GST-BCL-XL ΔTM protein; Table 3, read-out: EC50 FPA BCL-XL): 0.16 µM
−	Cc1cc2c(C(=O)c3ccc(C(C)(C)C)cc3)c(O)c(O)cc2c(O)c1-c1c(C)cc2c(C(=O)c3ccc(C(C)(C)C)cc3)c(O)c(O)cc2c1O [Compound X, (1,1′,6,6′,7,7′-hexahydroxy-3,3′-dimethyl-2,2′-binaphthyl-5,5′-diyl)bis((4-tert-butylphenyl)methanone)]			
+	Cc1cc2c(C(=O)c3ccc(C(F)(F)F)cc3)c(O)c(O)cc2c(O)c1-c1c(C)cc2c(C(=O)c3ccc(C(F)(F)F)cc3)c(O)c(O)cc2c1O [Compound XI, (1,1′,6,6′,7,7′-hexahydroxy-3,3′-dimethyl-2,2′-binaphthyl-5,5′-diyl)bis((4-(trifluoromethyl)phenyl)methanone)]			EC50 (RS11846 cell line; [5]): 3.8 µM
++	Cc1cc2c(C(=O)CC3CCCCC3)c(O)c(O)cc2c(O)c1-c1c(C)cc2c(C(=O)CC3CCCCC3)c(O)c(O)cc2c1O [Compound XV, 1,1′-(1,1′,6,6′,7,7′-hexahydroxy-3,3′-dimethyl-2,2′-binaphthyl-5,5′-diyl)bis(2-cyclohexylethanone)]			

— US9115061B2, “Naphthalene-based inhibitors of anti-apoptotic proteins” (BURNHAM INSTITUTE FOR MEDICAL RESEARCH, priority 2007, dated 2015)
